Test results reported in ChEMBL document CHEMBL1833872, “Improved synthesis and biological evaluation of chelator-modified α-MSH analogs prepared by copper-free click chemistry” (Bioorg Med Chem Lett, 2011).

Biological target: Melanocyte-stimulating hormone receptor (Mus musculus, UniProt Q01727)
Assay: Displacement of [125I]-[Nle4-D-Phe7]-alpha-MSH from MC1R in mouse B16-F10 cells after 1.5 hrs by gamma counting
Type: cell-based

Sequence of Melanocyte-stimulating hormone receptor (Q01727 whole entry): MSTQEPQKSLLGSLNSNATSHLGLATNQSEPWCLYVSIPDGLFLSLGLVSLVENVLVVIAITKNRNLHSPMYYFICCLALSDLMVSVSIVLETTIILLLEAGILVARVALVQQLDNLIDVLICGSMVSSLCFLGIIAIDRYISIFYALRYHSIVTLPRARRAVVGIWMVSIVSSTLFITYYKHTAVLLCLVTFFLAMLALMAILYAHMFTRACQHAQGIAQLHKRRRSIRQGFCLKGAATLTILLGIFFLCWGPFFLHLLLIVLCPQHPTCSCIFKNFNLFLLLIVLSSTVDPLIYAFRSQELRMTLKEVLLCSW

IC50: 0.25 nM
SMILES: CCCC[C@H](NC(=O)[C@H](CO)NC(=O)[C@H](Cc1ccc(O)cc1)NC(=O)[C@H](CO)NCCCCCCN=[N+]=[N-])C(=O)N[C@@H](CCC(=O)O)C(=O)N[C@@H](Cc1cnc[nH]1)C(=O)N[C@H](Cc1ccccc1)C(=O)N[C@@H](CCCN=C(N)N)C(=O)N[C@@H](Cc1c[nH]c2ccccc12)C(=O)NCC(=O)N[C@@H](CCCCN)C(=O)N1CCC[C@H]1C(=O)N[C@H](C(N)=O)C(C)C
